“Also recorded” adds a separate entry of the source.
Key:
VEGF = details: colorectal cancer; in combination with standard Saltz regime of irinotecan, 5-fluorouracil, and leucovorin; cited from earlier work
[1] = test system: human dermal microvascular endothelial cells (HDMEC); experiment: microcarrier in vitro 3D sprout angiogenesis assay of HDMEC in fibrin gel; format: cell-based
Protocol: Human dermal microvascular endothelial cells (HDMEC) were isolated from human neonatal foreskins. Briefly, after initial harvest from minced trypsinized human foreskins, microvascular endothelial cells were further purified on a PERCOLL® density gradient. […] HDMEC were cultured on collagen type 1 coated tissue culture flasks in EGM (endothelial cell growth medium) consisting of EBM supplemented with 10 ng/ml epidermal growth factor, 0.4% bovine brain extract, 17.5 microg/ml dibutyryl cyclic AMP, and 1 microg/ml hydrocortisone in the presence of 30% normal human serum. […] All experiments were done with HDMEC below passage 10. Bovine aortic endothelial cells (BAEC) were obtained from BioWhittaker, Inc. (Walkersville, MD) and cultured according to manufacturer's instruction. BAEC between passage 4 and 8 were used for experiments.
Gelatin-coated CYTODEX®-3 microcarrier beads were prepared as described by the manufacturer. Approximately 80,000 sterile microcarrier beads were washed, resuspended in EGM, and added to approximately 4.5 million endothelial cells (HDMEC or BAEC). The beads and cells were mixed by gentle swirling, incubated at 37° C. for 6 hr, and then rotated for 24-36 hr on an orbital mixer in a 37° C. oven to generate endothelial cell-loaded microcarrier beads (EC-beads).
FIGS. 1A-1C illustrate a study of human microvascular endothelial cell angiogenesis, according to some embodiments. A microcarrier, in vitro angiogenesis assay, previously designed to investigate bovine pulmonary artery endothelial cell angiogenic behavior in bovine fibrin gels, was modified for the study of human microvascular endothelial cell angiogenesis. The HDMEC were isolated from human neonatal foreskins and used, as described above, and images were captured at various magnifications, where the effect of angiogenic factors on sprout angiogenesis was quantified visually by counting the number and percent of EC-beads with capillary sprouts.
An isotonic 1.5 mg/ml collagen solution was prepared by mixing sterile native bovine type I &III collagen (VITROGEN®, Collagen Biomaterials, Palo Alto, CA) in 5XM199 medium and distilled water. The pH was adjusted to 7.4 using 1N NaOH.
For experiments using RGD peptides, EC-beads were firstly incubated with vary concentrations of peptides for one hour and then were added to the ECM solutions. About 500 EC-beads were then added to the ECM protein solutions, followed by the addition of 0.5 U/ml human thrombin. A 0.3 ml aliquot of each suspension was immediately added to appropriate wells of a 24-well tissue culture plate. After gelation, 1 ml of fresh assay medium (EBM supplemented with 20% normal human serum for HDMEC or EBM supplemented with 10% fetal bovine serum for BAEC) was added to each well.
FIGS. 1B and 1C show how the angiogenic response was monitored visually and recorded by video image capture. Specifically, capillary sprout formation was observed and recorded with a NIKON® Diaphot-TMD inverted microscope (Nikon Inc., Melville, NY), equipped with an incubator housing with a NIKON® NP-2 thermostat and Sheldon #2004 carbon dioxide flow mixer. […] The effect of angiogenic factors on sprout angiogenesis was quantified visually by determining the number and percent of EC-beads with capillary sprouts. 100-200 beads (five random low power fields) in each of triplicate wells were counted for each experimental condition. […]

αvβ3 integrin = αvβ3 integrin (Homo sapiens, UniProt P05106+P06756); details: cited from earlier work
Sequence of αvβ3 integrin (P06756 31-889 limits assumed): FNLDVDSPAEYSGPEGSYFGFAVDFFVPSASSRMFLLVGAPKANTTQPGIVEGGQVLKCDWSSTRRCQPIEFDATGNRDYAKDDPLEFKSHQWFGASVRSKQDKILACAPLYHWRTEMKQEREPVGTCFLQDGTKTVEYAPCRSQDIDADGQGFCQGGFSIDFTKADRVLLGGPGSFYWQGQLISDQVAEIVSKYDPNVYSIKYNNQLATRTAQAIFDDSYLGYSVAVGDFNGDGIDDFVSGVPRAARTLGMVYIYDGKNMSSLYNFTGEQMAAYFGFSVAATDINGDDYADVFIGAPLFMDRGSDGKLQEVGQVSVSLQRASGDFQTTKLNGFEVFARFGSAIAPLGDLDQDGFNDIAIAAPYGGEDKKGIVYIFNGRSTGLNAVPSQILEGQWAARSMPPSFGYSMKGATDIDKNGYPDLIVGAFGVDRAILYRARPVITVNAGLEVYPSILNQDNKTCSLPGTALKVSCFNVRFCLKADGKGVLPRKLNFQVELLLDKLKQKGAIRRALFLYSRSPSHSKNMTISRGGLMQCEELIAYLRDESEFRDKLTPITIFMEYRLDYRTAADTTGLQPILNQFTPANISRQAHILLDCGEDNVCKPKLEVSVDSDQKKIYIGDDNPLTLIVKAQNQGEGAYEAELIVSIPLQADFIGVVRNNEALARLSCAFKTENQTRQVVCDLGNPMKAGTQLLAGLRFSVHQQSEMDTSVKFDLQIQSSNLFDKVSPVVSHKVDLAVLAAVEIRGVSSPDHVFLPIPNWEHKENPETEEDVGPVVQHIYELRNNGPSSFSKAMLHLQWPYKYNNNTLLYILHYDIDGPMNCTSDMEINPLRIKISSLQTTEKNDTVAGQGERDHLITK
Sequence of αvβ3 integrin (P06756 891-1048 partner limits assumed): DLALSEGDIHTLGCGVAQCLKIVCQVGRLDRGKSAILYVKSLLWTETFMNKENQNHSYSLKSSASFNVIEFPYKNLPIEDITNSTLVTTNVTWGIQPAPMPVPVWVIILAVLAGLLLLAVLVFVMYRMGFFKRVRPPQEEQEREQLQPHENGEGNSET
Sequence of αvβ3 integrin (P05106 27-788): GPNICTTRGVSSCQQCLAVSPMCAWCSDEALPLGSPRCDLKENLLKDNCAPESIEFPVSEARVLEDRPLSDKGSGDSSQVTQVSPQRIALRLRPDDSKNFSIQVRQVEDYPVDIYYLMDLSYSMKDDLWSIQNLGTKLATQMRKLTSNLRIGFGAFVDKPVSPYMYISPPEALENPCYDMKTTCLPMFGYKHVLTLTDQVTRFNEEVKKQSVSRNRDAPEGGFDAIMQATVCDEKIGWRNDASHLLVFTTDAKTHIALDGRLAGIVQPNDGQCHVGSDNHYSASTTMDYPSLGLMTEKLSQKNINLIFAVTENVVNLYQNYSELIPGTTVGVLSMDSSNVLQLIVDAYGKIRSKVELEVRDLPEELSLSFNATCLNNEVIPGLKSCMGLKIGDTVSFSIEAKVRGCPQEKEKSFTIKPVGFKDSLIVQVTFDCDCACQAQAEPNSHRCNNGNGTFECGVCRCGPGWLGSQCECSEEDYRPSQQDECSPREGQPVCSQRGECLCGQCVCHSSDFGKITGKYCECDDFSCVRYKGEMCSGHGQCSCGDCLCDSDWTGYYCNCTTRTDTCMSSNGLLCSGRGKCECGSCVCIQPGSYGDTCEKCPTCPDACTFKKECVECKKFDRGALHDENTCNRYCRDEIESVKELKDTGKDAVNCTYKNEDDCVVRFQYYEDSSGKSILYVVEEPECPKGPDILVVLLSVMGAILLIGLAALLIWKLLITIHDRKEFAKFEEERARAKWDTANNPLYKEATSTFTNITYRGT

[2] = single agent, HDMEC in 3D fibrin matrix, stimulated with VEGF and bFGF

Sequence of VEGF (P15692 207-311 limits assumed): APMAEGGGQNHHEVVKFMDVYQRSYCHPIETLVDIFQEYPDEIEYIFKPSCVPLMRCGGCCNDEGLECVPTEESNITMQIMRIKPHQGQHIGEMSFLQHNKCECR

| Substance | increase of survival time (VEGF) | inhibition of sprout angiogenesis [1, 2] | inhibition of sprout angiogenesis ([1]; echistatin alone at 0.1 μg/ml, HDMEC in fibrin) | inhibition of sprout angiogenesis ([1]; echistatin alone, 1 μg/ml to 10 μg/ml, HDMEC in fibrin) | inhibition of sprout angiogenesis ([1]; single agent, HDMEC in 3D fibrin matrix, stimulated with VEGF and bFGF, listed as Echistatin) | αvβ3 integrin antagonism (αvβ3 integrin) |
| --- | --- | --- | --- | --- | --- | --- |
| AVASTATIN® (bevacizumab): human monoclonal antibody to VEGF | more than 30% |  |  |  |  |  |
| cyclo (Arg-Gly-Asp-d-Phe-Cys) [cRGDfC, reference compound] |  | dose dependently inhibited sprout angiogenesis |  |  |  |  |
| echistatin (QCESGPCCRNCKFLKEGTICKRARGDDMDDYCNGKTCDCPRNPHKGPAT; listed as Echis carinatus) |  | inhibition of sprout angiogenesis; also recorded: dose dependently inhibited sprout angiogenesis | little inhibitory effect | dose dependently | dose dependently inhibits sprout angiogenesis | potent irreversible αvβ3 integrin antagonist |
